Assay results published in US12419888B2, “Methods of treating elevated plasma cholesterol” (INSTITUT DE CARDIOLOGIE DE MONTREAL, priority 2020, dated 2025).

Key:
Biotinylated PCSK9 = Biotinylated PCSK9 (Homo sapiens (Human), UniProt Q8NBP7); test: Binding affinity of SHIM compounds to PCSK9 by surface plasmon resonance spectroscopy (Biacore T200); details: SPR, range tested 0.5-10 uM, 1:1 Langmuir model, NB = no binding detected in the tested range
Procedure: Studies of SHIM compounds—PCSK9 interactions. […] Biotinylated PCSK9 (ACRO Biosystems) at 1 μg/mL has been captured on a chip on which streptavidin has been immobilized with amine-directed chemistry according to the manufacturer's instructions (6000 RU) to a density of 6000 RU in PBS-P ([…], 0.005% Tween 20, pH7.4) buffer with 1% DMSO. SHIMs at 10, 3.3, 1.1, 0.33 and 0.11 uM were injected at 30 uL/min. […] Double reference method of analysis was used with the reference channel containing a reference biotinylated protein captured at 6000 RU.

[1] = test system: LDLR protein levels in HepG2 cells; test: Western blot analysis of relative LDLR protein levels in HepG2 cells after treatment; assay type: cell-based, human; details: HepG2 cells incubated overnight with compound, 0.2 μM to 20 μM
Procedure: Cell culture, treatments and cell viability assay. For phenotypic screening of PCSK9 modulators and/or LDLR small molecule inducers, human HepG2 cells were incubated overnight in conditioned media containing chemical compounds resuspended in DMSO at concentration ranging from 0.2 μM to 20 μM. […] Following incubation, media have been replaced and cells incubated for 4 h with 100 μL of phenol red-free DMEM containing 0.5 mg/mL of MTT (3-[4,5-dimethylthiazol-2-yl]-2,5-diphenyltetrazolium bromide; thiazolyl blue; catalog no. M5655, Sigma-Aldrich), following manufacturer's instructions.
Western Blot Analysis, Immunocytochemistry and LDLR Activity Assay. Following incubation, cells were washed three times in phosphate-buffered saline (PBS) and lysed in radioimmune precipitation assay buffer (50 mM Tris/HCl, pH 8.0, 1% (v/v) Nonidet P-40, 0.5% sodium deoxycholate, 150 mM NaCl, and 0.1% (v/v) SDS) supplemented with a complete protease inhibitor mixture (catalog no. 11 697 498 001, Roche Applied Science). Proteins were separated by SDS polyacrylamide gel electrophoresis, blotted on nitrocellulose membranes (Bio-Rad), blocked incubated with indicated antibodies as described (Poirier S, et al., Cell Rep, 2015). For immunocytochemistry analysis, cells were permeabilized or not with 0.1% Triton X-100/PBS for 10 min, and incubated with 150 mM glycine, blocked and incubated with indicated primary and secondary antibodies. Immunofluorescence analyses were performed with an Olympus FluoView FV10i confocal microscope (Poirier et al., Cell Rep. 2015; 13(10):2064-2071). For LDLR activity assay, HepG2 cells were incubated overnight without or with a given compound in the presence of 5 μg/ml fluorescent labelled DiI-LDL (Alfa Aesar, Cat. #J65330) and co-stained for LDLR if applicable, as described (Poirier et al., J Biol Chem. 2009; 284(42):28856-28864). Immunofluorescence analyses were performed with an Olympus FluoView FV10i confocal microscope.

[2] = test system: hypercholesterolemic C57BL/6 Pcsk9 KO mice; test: Efficacy and safety in hypercholesterolemic C57BL/6 Pcsk9 KO mice on Western diet, oral gavage; assay type: in vivo; details: 40 mg/kg/day oral gavage for 10 days
Source text: Animal studies. All animal studies were approved by the Montreal Heart Institute (MHI) Animal Care and Ethical committee. For in vivo proof-of-concept animal studies, wild-type C57BL/6 or Pcsk9 knockout male mice were fed on Western diet containing 48.5% w/w carbohydrate, 21.2% w/w fat, 17.3% w/w protein and 0.2% w/w cholesterol (catalog no. TD.88137, Envigo) for 14 days. Chemical compounds were mixed in DMSO/propylene glycol/water; 1:7:2 (v/v) and administered by oral gavage at 0 (vehicle) or 40 mg/kg/day for 10 days in mice on Western diet. Plasma lipoprotein cholesterol profiles were obtained from 100 μL of pooled plasma injected on a Superose 6 10/300 GL (catalog no. 17-5172-01, GE Life Sciences) and eluted with PBS at a flow rate of 0.1 mL per min at 4° C. mounted on a AKTA explorer system (GE Healthcare). Serum aspartate aminotransferase (AST), alanine transaminase (ALT), insulin, glucose and complete hematology tests were measured by the Montreal Heart Institute biochemical clinical chemistry platform according to manufacturer's recommendations.

Chain of Biotinylated PCSK9 (Q8NBP7 153-692): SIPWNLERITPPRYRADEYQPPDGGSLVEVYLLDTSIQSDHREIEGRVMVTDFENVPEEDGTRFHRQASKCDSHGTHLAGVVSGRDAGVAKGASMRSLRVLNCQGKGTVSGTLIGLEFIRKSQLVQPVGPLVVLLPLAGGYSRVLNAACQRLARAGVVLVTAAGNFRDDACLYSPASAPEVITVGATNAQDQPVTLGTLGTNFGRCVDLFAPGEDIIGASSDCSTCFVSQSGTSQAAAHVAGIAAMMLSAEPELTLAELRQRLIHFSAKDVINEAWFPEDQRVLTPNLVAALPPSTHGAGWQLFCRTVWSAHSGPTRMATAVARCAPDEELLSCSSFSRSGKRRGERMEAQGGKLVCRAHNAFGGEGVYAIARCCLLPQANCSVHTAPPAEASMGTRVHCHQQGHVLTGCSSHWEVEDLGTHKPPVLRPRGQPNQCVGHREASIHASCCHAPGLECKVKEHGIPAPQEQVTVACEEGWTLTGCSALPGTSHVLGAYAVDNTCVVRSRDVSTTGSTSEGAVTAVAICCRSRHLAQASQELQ

Kd (Biotinylated PCSK9; read-out: KD - equilibrium dissociation constant): 11 µM
kon (Biotinylated PCSK9; read-out: ka - association rate constant): 104000 M⁻¹ s⁻¹
koff (Biotinylated PCSK9; read-out: kd - dissociation rate constant): 1.14 s⁻¹
SMILES: O=C(c1csc(-c2cccs2)n1)N1CCc2c([nH]c3ccccc23)C1c1ccccn1 (stereo not drawn) [Compound 26, 1-(2-pyridinyl)-2-{[2-(2-thienyl)-1,3-thiazol-4-yl]carbonyl}-2,3,4,9-tetrahydro-1H-beta-carboline]
LDLR Fold (relative LDLR protein levels) [1]: 1.9 ± 0.5 Fold
ALT [2]: 24 U/L
AST [2]: 67 U/L
Glucose [2]: 16.3 mmol/L
ΔBody Weight (D 10 − D 0) [2]: 99%
HDL-C ([2]; Western diet): 3.00 mmol/L
LDL-C (measured) ([2]; Western diet): 0.23 mmol/L
TC ([2]; Western diet): 3.03 mmol/L
TG ([2]; Western diet): 0.90 mmol/L
nonHDL-C ([2]; Western diet): 0.04 mmol/L
LDL-C (pooled plasma) (FPLC AUC) (Fold Change %) ([2]; pooled plasma FPLC): −61%
